Experimental data as given in patent publication US8314123B2, “5, 6, or 7-substituted -3-(hetero) arylisoquinolinamine derivatives and therapeutic use thereof” (Rexahn Pharmaceuticals, Inc., priority 2006, dated 2012).
Like-named read-outs stand apart in the source and are kept apart here.

What was measured:
MDA-MB-231 (breast) = assay: In vitro cell proliferation assay (SRB), MDA-MB-231; format: cell-based; conditions: Homo sapiens, SRB method, 96 hours, read-out: Inhibition of cell growth (IC50, μM) MDA-MB-231
Protocol: (§1) Cancer cell lines to determine the effect of 5, 6, or 7-substituted-3-(hetero)arylisoquinolinamine compounds were obtained from the following sources: Human MDA-MB-231 (breast), PC3 (prostate), HCT-15 (colon), HCT116 (colon), OVCAR-3 (ovary), Caki-1 (kidney), PANC-1 (pancreas), SNB-19 (glioblastoma) and SK-MEL-28 (melanoma) from the American Type Culture Collection (ATCC) (Manassas, Va.). PC3, OVCAR-3, SK-MEL-28 and SNB-19 were grown in RPMI1640 medium (Invitrogen, Carlsbad, Calif.) supplemented with 10% fetal bovine serum (“FBS”), 1 mM sodium pyruvate, 10 mM HEPES and 100 U/ml penicillin and 100 μg/ml streptomycin (“P/S”). MDA-MB-231, Caki-1, HCT-15 (colon) and PANC-1 cells were maintained in Dulbecco's modified Eagle's medium (“DMEM”, Invitrogen) supplemented with 10% FBS, P/S and 10 mM HEPES. HCT116 cells were maintained in DMEM supplemented with 10% FBS, P/S and 10 mM HEPES for in vitro cell proliferation assay and in RPMI1640 medium supplemented with 10% FBS, 1 mM sodium pyruvate, 10 mM HEPES and P/S for in vitro cell cycle analysis. All cells were incubated at 37° C. under humidified 5% CO2.
(§2) The growth inhibition of the 5, 6, or 7-substituted-3-(hetero)arylisoquinolinamine derivatives against a variety of human tumor cells was evaluated to study the relative importance of particular substituent groups on the compounds. The 5, 6, or 7-substituted-3-(hetero)arylisoquinolinamine derivatives, prepared as described above, were tested with DMSO as a control.
(§3) The growth inhibition assay of representative 5, 6, or 7-substituted-3-(hetero)arylisoquinolinamine derivatives against human tumor cell lines was performed using the Sulforhodamine B (“SRB”) method (Skehan et al., J. National Cancer Institute, 82: 1107-1112 (1990)). Briefly, exponentially growing tumor cells were seeded into a 96-well plate at a density of 2-3×10^3 cells/well and treated with 5, 6, or 7-substituted-3-(hetero)arylisoquinolinamine compounds the next day. Triplicate wells were used for each treatment. The cells were incubated with the various compounds for 96 hours at 37° C. in a humidified 5% CO2 atmosphere. After 96-hour incubation, cells were fixed with 10% trichloroacetic acid (“TCA”), incubated for 1 hour at 4° C., and washed 3 times with tap water. Subsequently, cells were stained with 0.4% sulforhodamine B in 1% acetic acid for 30 minutes, washed 4 times with 1% acetic acid, and air-dried again. After 5 minutes agitation in 10 mM Tris solution, the absorbance of each well was measured at 530 nm using Benchmark Plus Microplate reader (Bio-Rad Laboratories, Hercules, Calif.).
(§4) To translate the OD530 values into the number of live cells in each well, the OD530 values were compared to those on standard OD530-versus-cell number curves generated for each cell line. The percent survival was calculated using the formula: % Survival=live cell number [test]/live cell number [control]×100
(§5) The IC50 values were calculated by non-linear regression analysis.

PANC-1 (pancreas) = assay: In vitro cell proliferation assay (SRB), PANC-1; format: cell-based; conditions: Homo sapiens, SRB method, 96 hours, read-out: Inhibition of cell growth (IC50, μM) PANC-1
Protocol: as §1, §2, §3, §4, §5

HCT116 (colon) = assay: In vitro cell proliferation assay (SRB), HCT116; format: cell-based; conditions: Homo sapiens, HCT-116
Protocol: as §1, §2, §3, §4, §5

PC3 (prostate) = assay: In vitro cell proliferation assay (SRB), PC3; format: cell-based; conditions: Homo sapiens; SRB method, 96 hours; read-out: Inhibition of cell growth (IC50, μM) PC3
Protocol: as §1, §2, §3, §4, §5

OVCAR-3 (ovary) = assay: In vitro cell proliferation assay (SRB), OVCAR3; format: cell-based; conditions: Homo sapiens, SRB method, 96 hours, read-out: Inhibition of cell growth (IC50, μM) OVCAR3
Protocol: as §1, §2, §3, §4, §5

SK-MEL-28 (melanoma) = assay: In vitro cell proliferation assay (SRB), SK-MEL-28; format: cell-based; conditions: Homo sapiens, SRB method, 96 hours, read-out: Inhibition of cell growth (IC50, μM) SK-MEL-28
Protocol: as §1, §2, §3, §4, §5

Caki-1 (kidney) = assay: In vitro cell proliferation assay (SRB), Caki-1; format: cell-based; conditions: Homo sapiens, SRB method, 96 hours, read-out: Inhibition of cell growth (IC50, μM) Caki-1
Protocol: as §1, §2, §3, §4, §5

SNB-19 (glioblastoma) = assay: In vitro cell proliferation assay (SRB), SNB19; format: cell-based; conditions: Homo sapiens, SRB method, 96 hours, read-out: Inhibition of cell growth (IC50, μM) SNB19
Protocol: as §1, §2, §3, §4, §5

[1] = tested on: paclitaxel-resistant HCT-15 colorectal cancer cells; assay: In vitro antitumor effects against paclitaxel-resistant HCT-15 cells; format: cell-based, Human; conditions: for IC50: Homo sapiens, paclitaxel-resistant HCT-15, Table 5, read-out: Inhibition of cell growth, IC50 (μM) HCT-15; for antitumor activity compared with paclitaxel: paclitaxel-resistant HCT-15 colorectal cancer cells
Protocol: as §1, §3, §4, §5
Compound 13 and 14 were tested in colon cancer cells and their antitumor activities were compared with paclitaxel (Taxol®).

[2] = tested on: HCT15 human colon carcinoma xenografts; assay: Ex vivo xenograft study of nude mice; format: in vivo; conditions: 10 mg/kg/day intraperitoneal, three times per week; for % Inhibition of HCT-15 human colorectal cancer in mice at 29 days: day 10 to day 29, nude mice
Protocol: In order to observe the inhibition of growth of tumor in an animal model, an ex vivo xenograft study of nude mice was conducted utilizing Compound 13. Paclitaxel-resistant HCT15 cell suspension (1×10^6 cells in 0.2 ml of RPMI) was injected subcutaneously into the right flank of six-week-old female athymic mice (BALB/c nu/nu) on day 0. A sufficient number of mice were injected with HCT15 cell suspension so that tumors in a volume range as narrow as possible were selected for the trial on the day of treatment initiation. Animals with tumors in the proper size range were assigned to various treatment groups. Palcitaxel was used as a positive control. Compound 13 and paclitaxel were dissolved in 5 Cremophor and 5% ethanol in PBS and solvent alone served as vehicle control. All study medications (vehicle control, paclitaxel: 10 mg/kg/day, Compound 13: 10 mg/kg/day) were given by intraperitoneal injections three times per week starting from day 10 and ending on day 29 after inoculation of HCT15 cells. To quantify tumor growth, three perpendicular diameters of the tumors were measured with calipers every 3-5 days, and the body weight of the mice was monitored for toxicity. The tumor volume was calculated using the formula: tumor volume (mm^3)=(width)×(length)×(height)×π/6.

human cancer cell lines = assay: Growth inhibition against the panel of human tumor cell lines (SRB), overall statements; format: cell-based; conditions: Table 3 cell lines
Protocol: as §1, §2, §3, §4, §5
Using QSAR and medicinal chemistry techniques, a large number of compounds, including the compounds shown in Table 1-2 above, were synthesized. The synthesized compounds were screened against at least four cancer cell lines, PANC-1, MDA-MB-231, HCT116 and Caki-1, at approximately 1 μM concentration. Compounds showing activity in at least one of these cell lines were selected for further screening. From these compounds, thirty compounds were selected for further evaluation as broad-spectrum anti-proliferative agents as shown in the following Table 3.

HCT116 cells = assay: In vitro cell cycle analysis (PI staining); format: cell-based, Human; conditions: HCT116, 0.3 uM, 12 hours; for % Cells in S: DMSO control 20.5; for % Cells in G1: DMSO control 39.4; for % Cells in G2/M: DMSO control 40.1
Protocol: as §1
This assay was used to determine the ability of 5, 6, or 7-substituted-3-(hetero)arylisoquinolinamine compounds to arrest cells at a specific phase during cell cycle. The day before drug treatment, HCT116 cells were plated at 50-70% saturation in a 10 cm dish in RPMI1640 medium with 10% FBS and then incubated overnight in a humidified 37° C. incubator with 5% CO2. The following day RPMI1640 medium (with 10% FBS) carrying the appropriate concentration of test compound solubilized in DMSO was added to the dishes. No compound control treatment was also included (0.25% DMSO). The cells were then incubated for 12 hours and were harvested by centrifugation at 7,000 rpm for 5 minutes. Cell pellets were resuspended in 0.2 ml of PBS containing 0.1% glucose and 2% FBS. Subsequently, 5 ml ice-cold 70% ethanol was added dropwise with shaking and the treated cells were stored at −20° C. at least 30 minutes. Cells were centrifuged at 2,000 rpm for 5 minutes and washed once with 1 ml PBS with 0.1% glucose and 2% FBS. After removal of the supernatant, cells were resuspended in 0.5 ml of 70 μM propium iodide (PI) solution containing 0.1% Triton X-100, 40 mM sodium citrate, pH 7.4. RNase was added at 50 μg/ml final concentration and cells were incubated at 37° C. for 30 minutes. PI stained cells were analyzed by Guava PCA-AFP instrument using its cell cycle software program (Guava Technologies, Hayward, Calif.) and expressed as percentage of cells in G1, S and G2/M phases of the cell cycle.

[3] = SRB method, 96 hours, Table 3, read-out: Inhibition of cell growth (IC50, μM) HCT116
[4] = Table 5, read-out: Inhibition of cell growth, IC50 (μM) HCT116

SMILES	IC50 (MDA-MB-231 (breast)) [µM]	IC50 (PANC-1 (pancreas)) [µM]	IC50 (HCT116 (colon); [3]) [µM]	IC50 (HCT116 (colon); [4]) [µM]	IC50 (PC3 (prostate)) [µM]	IC50 (OVCAR-3 (ovary)) [µM]	IC50 (SK-MEL-28 (melanoma)) [µM]	IC50 (Caki-1 (kidney)) [µM]	IC50 (SNB-19 (glioblastoma)) [µM]	IC50 [1] [µM]	antitumor activity compared with paclitaxel [1]	% Inhibition of HCT-15 human colorectal cancer in mice at 29 days [2] [%]	activity in growth inhibition of human cancer cell compared to Compound 23 (human cancer cell lines)	times more active than compound 23 in tested cell lines (human cancer cell lines)	% Cells in S (HCT116 cells) [%]	% Cells in G1 (HCT116 cells) [%]	% Cells in G2/M (HCT116 cells) [%]	further results
COc1cccc(-c2cc3ccc(N(C)C)cc3c(N)n2)c1.Cl [Compound 13, 3-(3-methoxyphenyl)-N^7,N^7-dimethylisoquinoline-1,7-diamine hydrochloride]	0.021	0.019	0.017	0.017	0.019	0.014	0.032	0.022	0.032	0.015	higher antitumor activities than that of paclitaxel	69.2	equal or better activity	five to thirteen times more active	–	–	–	Tolerability of treatment ([2]; nude mice): well tolerated without deaths; body weight fluctuations ([2]; nude mice): no more than 1 g
Cc1cccc(-c2cc3ccc(N(C)C)cc3c(N)n2)c1.Cl [Compound 14, N^7,N^7-Dimethyl-3-m-tolylisoquinoline-1,7-diamine hydrochloride]	0.021	0.018	0.023	0.023	0.024	0.016	0.032	0.023	0.028	0.021	higher antitumor activities than that of paclitaxel	–	equal or better activity	five to thirteen times more active	7.6	10.3	82.1	–
Cc1ccc2c(N)nc(-c3ccccc3C)cc2c1.Cl [Compound 23, 6-Methyl-3-o-tolylisoquinolin-1-amine hydrochloride salt]	0.15	0.24	0.19	–	0.24	0.15	0.35	0.12	0.26	–	–	–	–	–	–	–	–	melting point: 269.1 to 270.2 °C
Cc1ccc2cc(-c3c(C)cccc3C)nc(N)c2c1 [Compound 43, 7-Methyl-3-(2,6-dimethylphenyl)isoquinolin-1-amine]	0.051	0.079	0.074	–	0.12	0.075	0.12	0.048	0.12	–	–	–	equal or better activity	–	10.8	15.3	73.9	–
CC(=O)O[C@H]1C(=O)[C@@]2(C)[C@H]([C@H](OC(=O)c3ccccc3)[C@]3(O)C[C@H](OC(=O)[C@H](O)[C@@H](NC(=O)c4ccccc4)c4ccccc4)C(C)=C1C3(C)C)[C@]1(OC(C)=O)CO[C@@H]1C[C@@H]2O [Paclitaxel, paclitaxel, reference compound]	–	–	–	0.002	–	–	–	–	–	0.14	–	48.8	–	–	–	–	–	loss of activity in HCT-15 cells when IC50 values compared in both colon cancer cells ([1]; HCT-15 versus HCT116): 70 fold
